Assay [1] has as its system genotype 1b-Con1 subgenomic replicon cell line. Nature of the assay: HCV Polymerase Replicon Assay (genotype 1b-Con1, luciferase reporter). Type of assay: cell-based. The settings on record: Hepatitis C virus, 72 h, 1b-Con1 replicon, three days. A general note: Replicon systems follow genome replication, usually without infectious particles.
For assay [2], the target named is T1, HCV polymerase 1B (Δ21 NS5B) (Hepatitis C virus genotype 1b, UniProt P26663).
T1 construct: 20 to 50 nM Δ21 NS5B
Nature of the assay: HCV Polymerase Inhibition Assay (1b). Type of assay: biochemical. How it is done: (§1) Reaction volume was 50 μL. The reaction was terminated by the addition of 1 volume of 4 mM spermine in 10 mM Tris-Cl pH 8.0, 1 mM EDTA. After incubation for at least 15 minutes at room temperature, the precipitated RNA was captured by filtering through a GF/B filter (Millipore) in a 96 well format. The filter plate was washed three times with 200 μL, each of 2 mM spermine, 10 mM Tris-Cl pH 8.0, 1 mM EDTA, and 2 times with ethanol. After air-drying, 30 μL, of Microscint 20 scintillation cocktail (Packard) was added to each well, and the retained cpm were determined by scintillation counting. […] Retained cpm were plotted vs. inhibitor concentration and fit to equation 1 using non-linear regression (ref. 1) to obtain the IC50 values: Retained cpm=A[sqrt{(IC50+It−Et)^2+4*IC50*Et}−(IC50+It−Et)]
(§2) Ref. Morrison, J. F. and S. R. Stone. 1985. Approaches to the study and analysis of the inhibition of enzymes by slow- and tight-binding inhibitors. Comments Mol. Cell. Biophys. 2: 347-368.
(§3) The sequence of the template RNA used was: 5′-[…] […] […] […] […] […] […] […] […] […] […] […] […] […] […] […] […]-3′ (SEQ ID NO: 1)

For assay [3], the target named is T2, HCV polymerase 1A (Δ21 NS5B) (Hepatitis C virus genotype 1a, UniProt P27958).
T2 construct: 20 to 50 nM Δ21 NS5B
As to the kind of experiment: HCV Polymerase Inhibition Assay (1a). Type of assay: biochemical. Here is the method: as §1, §2, §3

For assay [4], the system named is genotype 1a-H77 subgenomic replicon cell line. Nature of the assay: HCV Polymerase Replicon Assay (genotype 1a-H77, luciferase reporter). Type of assay: cell-based. The following applies: Hepatitis C virus, 72 h, 1a-H77 replicon, three days.

The structures appear in SMILES notation.

As usually defined, the EC50 is the midpoint of the concentration-response curve. Low values mean an effect from little substance, high ones a need for much substance. The term IC50 denotes the concentration that gives 50% inhibition. Low values mean higher potency, high ones lower potency.

T2 sequence (P27958 2421-2990, stated change not applied): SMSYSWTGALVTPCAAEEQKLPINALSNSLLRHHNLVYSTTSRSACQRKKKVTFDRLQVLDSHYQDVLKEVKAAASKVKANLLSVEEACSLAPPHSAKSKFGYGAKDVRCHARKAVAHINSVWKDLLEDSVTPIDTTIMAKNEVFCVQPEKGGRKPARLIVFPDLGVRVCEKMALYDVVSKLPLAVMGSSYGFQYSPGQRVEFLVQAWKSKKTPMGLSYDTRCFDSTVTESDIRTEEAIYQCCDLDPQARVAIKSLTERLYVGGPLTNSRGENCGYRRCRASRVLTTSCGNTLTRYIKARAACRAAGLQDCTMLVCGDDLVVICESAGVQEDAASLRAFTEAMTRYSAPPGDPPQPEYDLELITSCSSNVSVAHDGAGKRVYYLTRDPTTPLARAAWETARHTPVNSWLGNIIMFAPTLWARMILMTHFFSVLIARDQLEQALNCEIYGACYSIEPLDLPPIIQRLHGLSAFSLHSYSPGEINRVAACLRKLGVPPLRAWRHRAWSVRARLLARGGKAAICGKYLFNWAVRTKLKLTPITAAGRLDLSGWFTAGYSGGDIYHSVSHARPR
T1 sequence (P26663 2420-2989, stated change not applied): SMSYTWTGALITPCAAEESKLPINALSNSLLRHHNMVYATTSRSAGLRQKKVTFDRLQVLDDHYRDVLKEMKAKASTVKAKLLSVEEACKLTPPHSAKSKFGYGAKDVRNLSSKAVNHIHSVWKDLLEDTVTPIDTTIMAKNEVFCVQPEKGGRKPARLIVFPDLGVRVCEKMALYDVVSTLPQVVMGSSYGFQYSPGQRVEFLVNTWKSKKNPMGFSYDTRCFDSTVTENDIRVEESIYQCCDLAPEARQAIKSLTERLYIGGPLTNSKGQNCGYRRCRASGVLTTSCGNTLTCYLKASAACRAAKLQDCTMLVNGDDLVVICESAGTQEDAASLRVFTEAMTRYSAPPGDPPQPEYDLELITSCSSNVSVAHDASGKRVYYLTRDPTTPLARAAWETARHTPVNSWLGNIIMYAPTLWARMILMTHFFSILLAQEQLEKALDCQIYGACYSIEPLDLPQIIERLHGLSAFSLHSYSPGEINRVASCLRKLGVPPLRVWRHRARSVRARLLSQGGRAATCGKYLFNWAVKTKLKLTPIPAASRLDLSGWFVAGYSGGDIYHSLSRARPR

Take `CCOC(=O)CCNC(=O)Nc1cc(-c2ccc3cc(NS(C)(=O)=O)ccc3c2)c(OC)c(C(C)(C)C)c1` [compound 21, ethyl 3-(3-(3-tert-butyl-4-methoxy-5-(6-(methylsulfonamido)naphthalen-2-yl)phenyl)ureido)propanoate]: the EC50 in assay [1] and in assay [4] was 100 to 1000 nM in each case. Further, the IC50 was greater than 1000 nM in assay [2] and 100 to 1000 nM in assay [3].

As for `CCNC(=O)Nc1cc(-c2ccc3cc(NS(C)(=O)=O)ccc3c2)c(OC)c(C(C)(C)C)c1` [compound 22, N-(6-(3-tert-butyl-5-(3-ethylureido)-2-methoxyphenyl)naphthalen-2-yl)methanesulfonamide], the EC50 in assay [1] and in assay [4] was 100 to 1000 nM in each case. Also, the 50% inhibitory concentration (IC50) in assay [2] and in assay [3] was 100 to 1000 nM throughout.

As for `COc1c(-c2ccc3cc(NS(C)(=O)=O)ccc3c2)cc(NC(=O)CCNC(=O)OC(C)(C)C)cc1C(C)(C)C` [compound 23, tert-butyl 3-(3-tert-butyl-4-methoxy-5-(6-(methylsulfonamido)naphthalen-2-yl)phenylamino)-3-oxopropylcarbamate], the EC50 in assay [1] and in assay [4] was greater than 1000 nM each time. Further, the IC50 was greater than 1000 nM in assay [2] and 100 to 1000 nM in assay [3].

Turning to `COc1c(-c2ccc3cc(NS(C)(=O)=O)ccc3c2)cc(N2CCOC2=O)cc1C(C)(C)C` [compound 25, N-(6-(3-tert-butyl-2-methoxy-5-(2-oxooxazolidin-3-yl)phenyl)naphthalen-2-yl)methanesulfonamide], the EC50 in assay [1] and in assay [4] was greater than 1000 nM throughout. The half-maximal inhibitory concentration (IC50) in assay [2] and in assay [3] was 100 to 1000 nM in each case.

As for `COc1c(-c2ccc3cc(NS(C)(=O)=O)ccc3c2)cc(N2CCCNC2=O)cc1C(C)(C)C` [compound 26, N-(6-(3-tert-butyl-2-methoxy-5-(2-oxotetrahydropyrimidin-1(2H)-yl)phenyl)naphthalen-2-yl)methanesulfonamide], the EC50 in assay [1] was no more than 10 nM; in assay [4], 10 to 100 nM. Moreover, the IC50 in assay [2] and in assay [3] was 10 to 100 nM throughout.

As for `COc1c(-c2ccc3cc(NS(C)(=O)=O)ccc3c2)cc(N2CCNC2=O)cc1C(C)(C)C` [compound 27, N-(6-(3-tert-butyl-2-methoxy-5-(2-oxoimidazolidin-1-yl)phenyl)naphthalen-2-yl)methanesulfonamide], the EC50 in assay [1] lay within 10 to 100 nM; in assay [4], 100 to 1000 nM. Further, the IC50 in assay [2] and in assay [3] was 10 to 100 nM in each case.

For `COc1c(-c2ccc3cc(NS(C)(=O)=O)ccc3c2)cc(-c2c[nH]c(=O)[nH]c2=O)cc1C(C)(C)C` [compound 28, N-(6-(3-tert-butyl-5-(2,4-dioxo-1,2,3,4-tetrahydropyrimidin-5-yl)-2-methoxyphenyl)naphthalen-2-yl)methanesulfonamide], the concentration for a half-maximal effect (EC50) in assay [1] and in assay [4] was no more than 10 nM each time. Besides, the values for the IC50 in assay [2] and in assay [3] were 10 to 100 nM and less than 10 nM, respectively.

Consider `COc1c(-c2ccc3cc(NS(C)(=O)=O)ccc3c2)cc(N2CCCC2=O)cc1C(C)(C)C` [compound 29, N-(6-(3-tert-butyl-2-methoxy-5-(2-oxopyrrolidin-1-yl)phenyl)naphthalen-2-yl)methanesulfonamide], for which the results for the EC50 in assay [1] and in assay [4] were 10 to 100 nM and 100 to 1000 nM, respectively. Also, the IC50 in assay [2] and in assay [3] was 10 to 100 nM in each case.

As to `COc1c(-c2ccc3cc(NS(C)(=O)=O)ccc3c2)cc(-n2ccccc2=O)cc1C(C)(C)C` [compound 30, N-(6-(3-tert-butyl-2-methoxy-5-(2-oxopyridin-1(2H)-yl)phenyl)naphthalen-2-yl)methanesulfonamide], the EC50 in assay [1] was 10 to 100 nM; in assay [4], 100 to 1000 nM. Besides, the IC50 in assay [2] and in assay [3] was 10 to 100 nM each time.

For `CC(C)(C)c1cc(-c2c[nH]c(=O)[nH]c2=O)cc(-c2ccc3cc(NS(C)(=O)=O)ccc3c2)c1N` [compound 33, N-(6-(2-amino-3-tert-butyl-5-(2,4-dioxo-1,2,3,4-tetrahydropyrimidin-5-yl)phenyl)naphthalen-2-yl)methanesulfonamide], the EC50 in assay [1] was 10 to 100 nM; in assay [4], 100 to 1000 nM. The IC50 in assay [2] is 10 to 100 nM; in assay [3], less than 10 nM.

For the compound `CC(C)(C)c1cc(-c2c[nH]c(=O)[nH]c2=O)cc(-c2ccc3cc(NS(C)(=O)=O)ccc3c2)c1I` [compound 34, N-(6-(3-tert-butyl-5-(2,4-dioxo-1,2,3,4-tetrahydropyrimidin-5-yl)-2-iodophenyl)naphthalen-2-yl)methanesulfonamide], the EC50 in assay [1] was in the range of 10 to 100 nM; in assay [4] it was 100 to 1000 nM. Moreover, the IC50 in assay [2] is 10 to 100 nM; in assay [3], less than 10 nM.

For the compound `C=Cc1c(-c2ccc3cc(NS(C)(=O)=O)ccc3c2)cc(-c2c[nH]c(=O)[nH]c2=O)cc1C(C)(C)C` [compound 35, N-(6-(3-tert-butyl-5-(2,4-dioxo-1,2,3,4-tetrahydropyrimidin-5-yl)-2-vinylphenyl)naphthalen-2-yl)methanesulfonamide], the results for the EC50 in assay [1] and in assay [4] were no more than 10 nM and 10 to 100 nM, respectively. Moreover, the IC50 in assay [2] and in assay [3] was less than 10 nM each time.

On to `CCc1c(-c2ccc3cc(NS(C)(=O)=O)ccc3c2)cc(-c2c[nH]c(=O)[nH]c2=O)cc1C(C)(C)C` [compound 36, N-(6-(3-tert-butyl-5-(2,4-dioxo-1,2,3,4-tetrahydropyrimidin-5-yl)-2-ethylphenyl)naphthalen-2-yl)methanesulfonamide], for which the EC50 in assay [1] and in assay [4] was 100 to 1000 nM throughout. The IC50 in assay [2] and in assay [3] was 10 to 100 nM throughout.

`COc1c(-c2ccc3cc(NS(C)(=O)=O)ccc3c2)cc(-c2c[nH]c(=O)[nH]c2=O)cc1C(F)(F)C(F)(F)F` [compound 37, N-(6-(5-(2,4-dioxo-1,2,3,4-tetrahydropyrimidin-5-yl)-2-methoxy-3-(perfluoroethyl)phenyl)naphthalen-2-yl)methanesulfonamide]: the EC50 lay within 10 to 100 nM in assay [1] and 100 to 1000 nM in assay [4]. Moreover, the IC50 was 10 to 100 nM in assay [2] and less than 10 nM in assay [3].

Turning to `COc1c(-c2ccoc2)cc(-c2c[nH]c(=O)[nH]c2=O)cc1-c1ccc2cc(NS(C)(=O)=O)ccc2c1` [compound 38, N-(6-(5-(2,4-dioxo-1,2,3,4-tetrahydropyrimidin-5-yl)-3-(furan-3-yl)-2-methoxyphenyl)naphthalen-2-yl)methanesulfonamide], the EC50 fell in the range of 10 to 100 nM in assay [1] and 100 to 1000 nM in assay [4]. For the same compound, the IC50 in assay [2] is 10 to 100 nM; in assay [3] it was less than 10 nM.

As to `COc1c(-c2ccc3cc(NS(C)(=O)=O)ccc3c2)cc(-c2c[nH]c(=O)[nH]c2=O)cc1-c1cccs1` [compound 39, N-(6-(5-(2,4-dioxo-1,2,3,4-tetrahydropyrimidin-5-yl)-2-methoxy-3-(thiophen-2-yl)phenyl)naphthalen-2-yl)methanesulfonamide], the EC50 in assay [1] is no more than 10 nM; in assay [4], 10 to 100 nM. Moreover, the IC50 in assay [2] and in assay [3] was less than 10 nM throughout.

Values taken from patent US9353091B2 (priority 2009, dated 2016).
